In the assay the target is T1, Angiotensin II Receptor (Bos taurus, UniProt P25104).
T1 construct: The brownish tissue forming the adrenal cortex is scraped off and finely minced with scissors before homogenization; from tissue; host or cells: beef adrenal cortex, microsomal (100,000 x g) membranes; adrenals from a local slaughter house (Maxwell-Cohen)
T1 sequence (P25104 1-359): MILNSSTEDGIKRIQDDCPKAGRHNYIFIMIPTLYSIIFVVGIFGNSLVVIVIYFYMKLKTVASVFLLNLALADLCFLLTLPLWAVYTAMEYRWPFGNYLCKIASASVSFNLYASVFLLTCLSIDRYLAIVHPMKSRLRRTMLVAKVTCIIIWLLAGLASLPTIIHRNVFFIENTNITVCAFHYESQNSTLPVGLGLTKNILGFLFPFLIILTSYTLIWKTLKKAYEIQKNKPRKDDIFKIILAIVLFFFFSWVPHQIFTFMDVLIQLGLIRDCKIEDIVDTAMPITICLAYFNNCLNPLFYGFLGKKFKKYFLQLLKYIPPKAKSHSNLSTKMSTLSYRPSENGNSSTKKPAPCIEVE
Briefly: Receptor Binding Assay, binding of [125I](Sar1,Ile8)AngII to beef adrenal cortex membranes. The conditions noted are these: beef adrenal membranes; [125I](Sar1,Ile8)AngII; 60 min, room temperature, pH 7.4. From the text: Beef adrenals are obtained from a local slaughter house (Maxwell-Cohen). [^125 I](Sar^1,Ile^8)AngII, S.A. 2200 Ci/mmole, is purchased from Dupont (NEN®, Boston, Mass.).
Approximately sixteen (16) to twenty (20) beef adrenal glands are processed as follows: fresh adrenal glands received on crushed ice are cleaned of fatty tissues and the tough membranes encapsulating the glands are removed and discarded. The brownish tissue forming the adrenal cortex is scraped off and finely minced with scissors before homogenization. Care is taken to avoid contamination with medullary tissue during dissection. The scraped cortices are suspended in twenty volumes of an ice-cold buffer medium consisting of 10 mM Tris.HCl (pH 7.4 at 22° C.) and containing 1.0 mM EDTA and 0.2M sucrose. Unless otherwise indicated, all subsequent operations are done at 4° C. […] The homogenate is centrifuged first at low speed (3,000×g) for 10 min. […] The pelleted membrane is reconstituted in 50.0 mM Tris.HCl buffer containing 0.1 mM of phenylmethylsulfonyl fluoride (PMSF) to give approximately a protein concentration of 2.5 mg per ml of tissue suspension. The membrane preparation is finally aliquoted in 1.0 ml volumes and stored at -70° C. until use in the binding assays. […]

Structures are written as SMILES.

For orientation: IC50 means the concentration needed to halve the response being measured. The low end stands for greater potency, the high end for weaker potency.

Take `CCCCc1nc2ccc(COc3ccccn3)cc2c(=O)n1Cc1ccc(-c2ccccc2-c2nnn[nH]2)cc1.Cl` [Example 12, 2-Butyl-6-[(2-pyridinyloxy)methyl]-3-[[2'-(1H-tetrazol-5-yl)[1,1'-biphenyl]-4-yl]methyl]-4(3H)-quinazolinone monohydrochloride]: the IC50 worked out at 130 nM.
